Values after ≈ are worked out from the molar mass of the structure shown. Where two headings read alike, the source gives them in different places.

The conditions of assay [1]: J. Am. Chem. Soc. 96, 7584 (1974); J. Med. Chem. 20, 551; cited from earlier work.
Assay [2] relates to Pseudomonas aeruginosa 145. Description: Antibacterial activity, Heart Infusion Agar Dilution Method, Pseudomonas aeruginosa 145. Format: cell-based. As to conditions: Pseudomonas aeruginosa, 145, pH 7.2; read-out: Minimum Inhibitory Concentration. The protocol: (§1) The antibacterial activity of the compounds obtained in the above Examples 24, 26, 28, 30, 32, 34, 36, 38, 40 and 41 are determined by Heart Infusion Agar Dilution Method (pH 7.2). Cefazolin is used as a reference.

Assay [3] concerns Escherichia coli NIHJC2. Description: Antibacterial activity, Heart Infusion Agar Dilution Method, Escherichia coli NIHJC2. Format: cell-based. The protocol: as §1
The subject of assay [4] is Serratia marcescens T55. Description: Antibacterial activity, Heart Infusion Agar Dilution Method, Serratia marcescens T55. As to conditions: pH 7.2, read-out: Minimum Inhibitory Concentration. Format: cell-based. (In general: In agar dilution the substance is mixed into plates at graded concentrations.)
In assay [5] the test system is Escherichia coli Juhl. Description: Antibacterial activity, Heart Infusion Agar Dilution Method, Escherichia coli Juhl. Format: cell-based.
For assay [6], the system named is Proteus rettgeri KY4289. Description: Antibacterial activity, Heart Infusion Agar Dilution Method, Proteus rettgeri KY4289. Format: cell-based. Conditions: Providencia rettgeri, pH 7.2, read-out: Minimum Inhibitory Concentration. The protocol: as §1
In assay [7] the test system is Klebsiella pneumoniae Y60. Description: Antibacterial activity, Heart Infusion Agar Dilution Method, Klebsiella pneumoniae Y60. Format: cell-based. Conditions: pH 7.2, read-out: Minimum Inhibitory Concentration.
For assay [8], the system named is Staphylococcus aureus Smith. Description: Antibacterial activity, Heart Infusion Agar Dilution Method, Staphylococcus aureus Smith. Conditions: pH 7.2, read-out: Minimum Inhibitory Concentration. Format: cell-based. As to the method: as §1
The subject of assay [9] is Staphylococcus epidermidis. Description: Antibacterial activity, Heart Infusion Agar Dilution Method, Staphylococcus epidermidis. Format: cell-based. As to conditions: pH 7.2, read-out: Minimum Inhibitory Concentration. As to the method:
as §1

Assay [10] concerns Proteus vulgaris 6897. Description: Antibacterial activity, Heart Infusion Agar Dilution Method, Proteus vulgaris 6897. Conditions: pH 7.2, read-out: Minimum Inhibitory Concentration. Format: cell-based. As to the method: as §1
Assay [11] deals with Staphylococcus aureus 209p. Description: Antibacterial activity, Heart Infusion Agar Dilution Method, Staphylococcus aureus 209p. Conditions: pH 7.2, read-out: Minimum Inhibitory Concentration. Format: cell-based. As to the method: as §1
Assay [12] concerns Proteus morganii KY4298. Description: Antibacterial activity, Heart Infusion Agar Dilution Method, Proteus morganii KY4298. Format: cell-based. As to conditions: Morganella morganii, pH 7.2, read-out: Minimum Inhibitory Concentration. The protocol: as §1
Assay [13] has as its system Proteus mirabilis 1287. Description: Antibacterial activity, Heart Infusion Agar Dilution Method, Proteus mirabilis 1287. Conditions: pH 7.2, read-out: Minimum Inhibitory Concentration. Format: cell-based. As to the method:
as §1

Assay [14] deals with Pseudomonas putida F264. Description: Antibacterial activity, Heart Infusion Agar Dilution Method, Pseudomonas putida F264. Format: cell-based. As to conditions: pH 7.2, read-out: Minimum Inhibitory Concentration.
Assay [15] relates to Serratia marcescens T26. Description: Antibacterial activity, Heart Infusion Agar Dilution Method, Serratia marcescens T26. Format: cell-based. As to conditions: pH 7.2, read-out: Minimum Inhibitory Concentration.
The subject of assay [16] is Klebsiella pneumoniae 8045. Description: Antibacterial activity, Heart Infusion Agar Dilution Method, Klebsiella pneumoniae 8045. Format: cell-based. Conditions: pH 7.2, read-out: Minimum Inhibitory Concentration. The protocol: as §1
The test system of assay [17] is Microorganism. Description: Antimicrobial activity as shown in table (overall statement). As to conditions: as shown in table below. Format: cell-based. As to the method:
as §1

Assay [18] concerns Salmonella typhosa KY4278. Description: Antibacterial activity, regular agar dilution, Salmonella typhosa KY4278. Format: cell-based. As to conditions: Salmonella enterica, pH 7. The protocol:
(§2) The antibacterial activity of (±)-cis-2-carboxy-7-[2-(thiophene-2-yl)acetylamino]-1-azabicyclo[4,2,0]oct-2-en-8-one obtained in Example 21 above is set forth below. The activity is determined by the regular agar dilution at pH 7.0.

In assay [19] the test system is Vibrio percolans KY4174. Description: Antibacterial activity, regular agar dilution, Vibrio percolans KY4174. As to conditions: Comamonas terrigena, pH 7.0. Format: cell-based. The protocol:
as §2

For assay [20], the system named is Erwinia aroides KY3241. Description: Antibacterial activity, regular agar dilution, Erwinia aroides KY3241. Format: cell-based. Conditions: pH 7.0. The protocol: as §2
Assay [21] deals with Shigella sonnei KY4281. Description: Antibacterial activity, regular agar dilution, Shigella sonnei KY4281. Format: cell-based. Conditions: pH 7.0. The protocol: as §2
For assay [22], the system named is Staphylococcus aureus KY4279. Description: Antibacterial activity, regular agar dilution, Staphylococcus aureus KY4279. Format: cell-based. Conditions: pH 7.0. As to the method: as §2
The subject of assay [23] is Proteus vulgaris KY4277. Description: Antibacterial activity, regular agar dilution, Proteus vulgaris KY4277. Format: cell-based. Conditions: pH 7.0. As to the method: as §2
Assay [24] has as its system Bacillus subtilis KY4273. Description: Antibacterial activity, regular agar dilution, Bacillus subtilis KY4273. Format: cell-based. Conditions: pH 7.0. The protocol:
as §2

In assay [25] the test system is Klebsiella penumoniae KY4275. Description: Antibacterial activity, regular agar dilution, Klebsiella penumoniae KY4275. Format: cell-based. Conditions: pH 7.0. As to the method:
as §2

Assay [26] has as its system Escherichia coli KY4271. Description: Antibacterial activity, regular agar dilution, Escherichia coli KY4271. Conditions: pH 7.0. Format: cell-based. The protocol:
as §2

[27] abbreviates: Escherichia coli NIHJC2, Heart Infusion Agar Dilution, pH 7.2, read-out: Minimum Inhibitory Concentration.
Setting [28] is: Escherichia coli Juhl, Heart Infusion Agar Dilution, pH 7.2, read-out: Minimum Inhibitory Concentration.

For `CC(=O)OCC1=C(C(=O)O)N2C(=O)C(NC(=O)Cc3cccs3)C2CC1` (racemic) [(±)-1-carbacephalotin], the “antibacterial activity (in words)” value in assay [1] is on record as “having antibacterial activity”.

`CO/N=C(\C(=O)N[C@@H]1C(=O)N2C(C(=O)O)=CCC[C@H]12)c1csc(N)n1` (relative stereo) [Example 40, (±)-cis-7-[2-(2-amino-4-thiazolyl)-2-syn-methoxyiminoacetamido]-1-azabicyclo[4,2,0]oct-2-en-8-on-2-carboxylic acid]: the MIC in assay [2] is 50 µg/mL (≈ 137 µM); in [3] (setting [27]), no more than 0.05 µg/mL; in [4], no more than 0.05 µg/mL; in assay [5] (setting [28]), no more than 0.05 µg/mL; in assay [6], no more than 0.05 µg/mL; in assay [7], no more than 0.05 µg/mL. Besides, the MIC in [8] was 12.5 µg/mL (≈ 34.2 µM); in [9] it was 12.5 µg/mL (≈ 34.2 µM); in assay [10] it was no more than 0.05 µg/mL; in [11], 12.5 µg/mL (≈ 34.2 µM); in assay [12], no more than 0.05 µg/mL; in assay [13], no more than 0.05 µg/mL. Moreover, the figures for the MIC in assay [14], in [15] and in assay [16] were 0.1 µg/mL (≈ 0.274 µM), 0.78 µg/mL (≈ 2.13 µM) and no more than 0.05 µg/mL, respectively.

Consider `CC(=O)O[C@@H]1C=C(C(=O)O)N2C(=O)[C@@H](NC(=O)Cc3cccs3)[C@H]2C1` (relative stereo) [Example 41, (±)-cis-7β-(2-thienylacetamido)4α-acetoxy-1-azabicyclo[4,2,0]oct-2-en-8-on-2-carboxylic acid], for which the MIC in assay [2] was greater than 100 µg/mL; in [3] (setting [27]), 100 µg/mL (≈ 274 µM); in assay [4], greater than 100 µg/mL; in assay [5] (setting [28]), 100 µg/mL (≈ 274 µM); in [6], greater than 100 µg/mL; in [7], 25 µg/mL (≈ 68.6 µM). The MIC in [8] was 25 µg/mL (≈ 68.6 µM); in [9], 12.5 µg/mL (≈ 34.3 µM); in assay [10] it was greater than 100 µg/mL; in [11], 3.12 µg/mL (≈ 8.56 µM); in [12] it was greater than 100 µg/mL; in assay [13], greater than 100 µg/mL. Besides, the MIC in assay [14], in assay [15] and in [16] was greater than 100 µg/mL throughout.

For `CCN1CCN(C(=O)NC(C(=O)NC2C(=O)N3C(C(=O)O)=CCCC23)c2ccccc2)C(=O)C1=O` (stereo in doubt) [Example 28, (±)-cis-7-[(R)-2-phenyl-2-(4-ethyl-2,3-dioxo-1-piperazinylcarbonylamino)acetamido]-1-azabicyclo[4,2,0]oct-2-en-8-one-2-carboxylic acid], the MIC was determined as 100 µg/mL (≈ 207 µM) in assay [2]; 1.56 µg/mL (≈ 3.23 µM) in [3] (setting [27]); 3.12 µg/mL (≈ 6.45 µM) in assay [4]; 1.56 µg/mL (≈ 3.23 µM) in assay [5] (setting [28]); 6.25 µg/mL (≈ 12.9 µM) in assay [6]; 25 µg/mL (≈ 51.7 µM) in assay [7]. The MIC is 3.12 µg/mL (≈ 6.45 µM) in assay [8]; 3.12 µg/mL (≈ 6.45 µM) in assay [9]; less than 0.05 µg/mL in assay [10]; 0.78 µg/mL (≈ 1.61 µM) in assay [11]; 3.12 µg/mL (≈ 6.45 µM) in [12]; 1.56 µg/mL (≈ 3.23 µM) in [13]. Further, the MIC in assay [14] was 6.25 µg/mL (≈ 12.9 µM); in assay [15], 25 µg/mL (≈ 51.7 µM); in assay [16], less than 0.05 µg/mL. Also, the “antimicrobial activity (in words)” value in [17] is on record as “strong antimicrobial activity”.

As to `Cc1nnc(SCC2=C(C(=O)O)N3C(=O)[C@@H](NC(=O)Cn4cnnn4)[C@H]3SC2)s1` [Cefazolin, reference compound], the MIC was greater than 100 µg/mL in [2]; 1.56 µg/mL (≈ 3.43 µM) in assay [3] (Escherichia coli, NIHJC2, pH 7.2, read-out: Minimum Inhibitory Concentration); 50 µg/mL (≈ 110 µM) in [4]; 1.56 µg/mL (≈ 3.43 µM) in assay [5] (Escherichia coli, pH 7.2, read-out: Minimum Inhibitory Concentration); 25 µg/mL (≈ 55 µM) in assay [6]; 3.12 µg/mL (≈ 6.86 µM) in assay [7]. Moreover, the MIC was 0.4 µg/mL (≈ 0.88 µM) in assay [8]; 0.78 µg/mL (≈ 1.72 µM) in [9]; 12.5 µg/mL (≈ 27.5 µM) in assay [10]; less than 0.05 µg/mL in [11]; greater than 100 µg/mL in assay [12]; 12.5 µg/mL (≈ 27.5 µM) in assay [13]. The MIC in [14] was greater than 100 µg/mL; in assay [15] it was greater than 100 µg/mL; in assay [16], 0.78 µg/mL (≈ 1.72 µM).

For the compound `O=C(Cc1cccs1)NC1C(=O)N2C(C(=O)O)=CCCC12` (stereo not drawn) [Example 21, (±)-cis-2-carboxy-7-[2-(thiophene-2-yl)acetylamino]-1-azabicyclo[4,2,0]oct-2-en-8-one], the MIC amounted to 1 µg/mL (≈ 3.26 µM) in assay [18]; 2 µg/mL (≈ 6.53 µM) in [19]; 1 µg/mL (≈ 3.26 µM) in assay [20]; 8 µg/mL (≈ 26.1 µM) in assay [21]; 1 µg/mL (≈ 3.26 µM) in [22]; 8 µg/mL (≈ 26.1 µM) in assay [23]. In addition, the figures for the MIC in [24], in assay [25] and in [26] were 2 µg/mL (≈ 6.53 µM), 4 µg/mL (≈ 13.1 µM) and 8 µg/mL (≈ 26.1 µM), respectively.

For `N[C@@H](C(=O)N[C@@H]1C(=O)N2C(C(=O)O)=CCC[C@H]12)c1ccccc1` [Example 26 B isomer], the MIC in assay [3] (setting [27]) is 3.12 µg/mL (≈ 9.89 µM); in [4] it was 12.5 µg/mL (≈ 39.6 µM); in assay [5] (setting [28]) it was 3.12 µg/mL (≈ 9.89 µM); in assay [6], 12.5 µg/mL (≈ 39.6 µM); in [7], 3.12 µg/mL (≈ 9.89 µM); in assay [8], 6.25 µg/mL (≈ 19.8 µM). For the same compound, the MIC in assay [9] amounted to 3.12 µg/mL (≈ 9.89 µM); in assay [10], 50 µg/mL (≈ 159 µM); in [11], 0.4 µg/mL (≈ 1.27 µM); in assay [12] it was 50 µg/mL (≈ 159 µM); in assay [13] it was 12.5 µg/mL (≈ 39.6 µM); in [14], 100 µg/mL (≈ 317 µM). In [16], the MIC was 0.78 µg/mL (≈ 2.47 µM). Besides, the “antimicrobial activity (in words)” value in assay [17] is recorded as “stronger antimicrobial activity than the more polar isomer”.
